Experimental data published in patent publication US20260256741A1, “ANTICANCER MALEIMIDE DERIVATIVES FOR USE WITH IMMUNE CHECKPOINT BLOCKADE” (BROWN UNIVERSITY, priority 2022, published 2026).

Columns and labels:
[1] = tested on: CD45+ immune cell segments of tumor biopsies; assay: GeoMx Digital Spatial Profiling of patient tumor biopsies; type: in vivo, human; conditions: post- vs pre-treatment
Text: An Agilent technologies hybridization oven was used for baking tissue onto slides (Agilent, Santa Clara, CA, USA). A NanoString GeoMx® Digital Spatial Profiler (DSP) instrument (NanoString, Seattle, WA, USA) was used to scan slides, identify regions of interest (ROIs), and collect photocleavable barcodes according to manufacturer instructions. A custom panel was designed to include the following proteins: Ms IgG1, Ms IgG2a, Rb IgG, GAPDH, Histone H3, S6, Beta-2-microglobulin, CD31, CD45, Ki-67, ARG1, CD11b, CD11c, CD14, CD163, CD39, CD40, CD68, HLA-DR, GZMB, CD20, CD3, CD34, CD4, CD56, CD66b, CD8, Foxp3, Fibronectin, 4-1BB, B7-H3, CTLA4, GITR, IDO1, LAG3, OX40L, STING, Tim-3, VISTA, Bcl-2, ER-α, EpCAM, Her2, MART1, NY-ESO-1, PR, PTEN, PanCk, SMA, CD127, CD25, CD27, CD44, CD45RO, CD80, ICOS, PD-1, PD-L1, and PD-L2. An Eppendorf MasterCycler Gradient Thermal Cycler was used to generate the Illumina sequencing libraries from the photocleaved tags. (Eppendorf, Hamburg, Germany). An Agilent Fragment Analyzer (RRID: SCR_019417) was used for library size distribution analysis with a high-sensitivity NGS Fragment Kit (Cat #DNF-474-0500, Agilent, Santa Clara, CA, USA). qPCR for quantification was run using an Illumina-compatible KAPA Library Quantification Kits (ROX Low) (cat #KK4873) on an Applied Biosystems ViiA 7 Real-Time qPCR/PCR Thermal Cycler System (Applied Biosystems, San Francisco, CA, USA) and was analyzed using QuantStudio software (RRID: SCR_018712). Sequencing was performed using a NextSeq 500/550 High Output Kit v2.5 (75 Cycles) kit (cat #20024906) on an Illumina Sequencing NextSeq 550 System ([RRID: SCR_016381], Illumina, San Diego, CA, USA). The initial annotated dataset went through quality control (QC) to check if housekeeper genes and background (isotype) control molecules were themselves correlated with the predictors of interest. Every ROT was tested for raw sequencing reads (segments with <1000 raw reads were removed), % sequencing saturation (defined as [1-deduplicated reads/aligned reads]%, segments below ~50% were not analyzed), and nuclei count per segment (>100 nuclei per segment is generally recommended). Both immunoglobulins (IgGs) and housekeeper genes were highly correlated with one another. Signal to noise (SNR) ratio was calculated using background probes and all probes were detected above the background in at least one ROI. Finally, data were normalized based on background IgG expression and all normalization factors were well distributed. Data analysis and visualization were generated using R ([RRID: SCR_001905], R Development Core Team, 2020). Archival tumor specimens and peripheral blood samples were collected from patients enrolled in the Phase I study of Elraglusib (9-ING-41), a small molecule selective glycogen synthase kinase-3 beta (GSK-3b) inhibitor, as monotherapy or combined with cytotoxic regimens in patients with relapsed or refractory hematologic malignancies or solid tumors (Clinicaltrials.gov NCT03678883) who received treatment at the Lifespan Cancer Institute (Providence, RI, USA). The study was conducted in accordance with the Declaration of Helsinki and the International Conference on Harmonization Good Clinical Practice guidelines. The study protocol was approved by the Institutional Review Board (IRB) of Rhode Island Hospital under protocol number 1324888-120. The patients also participated in a Lifespan Cancer Institute research protocol designed to investigate molecular and genetic features of tumors and mechanisms of resistance (Rhode Island Hospital IRB protocol number 449060-38). All patients provided written informed consent.

HT-29 cells = assay: Microarray gene expression analysis, HT-29; type: cell-based, human
Experimental: A total of 0.5×10^6 tumor cells (HCT-116, HT-29, KM12C) were plated in a 6-well plate and allowed to adhere overnight before 24-hour treatment as indicated. 1×10^6 immune cells (NK92, TALL-104) were plated and treated with elraglusib as indicated for 24 hours. RNA was isolated from cell pellets in batches of 6 using an RNeasy Plus Mini Kit (Cat #74134, Qiagen, Hilden, Germany). Acceptable RNA concentration and quality were verified with Nanodrop and Bioanalyzer measurements. GeneChip™ Human Transcriptome Array 2.0 assays were conducted according to manufacturer instructions in two batches using randomized samples to limit batch effects (Cat #902162, Applied Biosystems, Waltham, MA, USA). Applied Biosystems Transcriptomic Analysis Console (TAC) software (RRID: SCR_016519) was used to calculate fold changes in gene expression relative to the untreated control cells. Values were considered statistically significant for p values <0.05.

[2] = tumor-infiltrating CD45+ segments, p=0.012
[3] = tumor-infiltrating CD45+ segments, p=1.6E-3
[4] = tumor-infiltrating CD45+ segments, p=3.1E-5

SMILES: Cn1cc(C2=C(c3coc4ccc(F)cc34)C(=O)NC2=O)c2cc3c(cc21)OCO3 [elraglusib, 3-(5-fluorobenzofuran-3-yl)-4-(5-methyl-5H-[1,3]dioxolo[4,5-f]indol-7-yl)-1H-pyrrole-2,5-dione]
- CD40 protein expression ([1]; CD45+ regions, all samples, p=0.020): decreased protein expression
- CD11c protein expression ([1]; CD45+ regions, all samples, p=0.022): decreased protein expression
- PD-L2 protein expression ([1]; CD45+ regions, all samples, p=2.0E-9): decreased protein expression
- VISTA protein expression ([1]; CD45+ regions, all samples, p=2.0E-24): decreased protein expression
- PD-L1 protein expression ([1]; CD45+ regions, all samples, p=3.2E-13): decreased protein expression
- CD68 protein expression ([1]; CD45+ regions, all samples, p=3.8E-4): decreased protein expression
- IDO1 protein expression ([1]; CD45+ regions, all samples, p=4.8E-6): decreased protein expression
- LAG3 protein expression ([1]; CD45+ regions, all samples, p=5.1E-4): decreased protein expression
- CD80 protein expression ([1]; CD45+ regions, all samples, p=5.4E-6): decreased protein expression
- PD-1 protein expression ([1]; CD45+ regions, all samples, p=5.6E-9): decreased protein expression
- CD11b protein expression ([1]; CD45+ regions, all samples, p=6.7E-3): decreased protein expression
- CD66b protein expression ([1]; CD45+ regions, all samples, p=7.5E-15): decreased protein expression
- B7-H3 protein expression [1, 2]: higher protein expression
- CD127 protein expression [1, 2]: higher protein expression
- GITR protein expression ([1]; tumor-infiltrating CD45+ segments, p=0.021): lower protein expression
- CD45RO protein expression ([1]; tumor-infiltrating CD45+ segments, p=1.1E-4): lower protein expression
- PD-L1 protein expression ([1]; tumor-infiltrating CD45+ segments, p=1.1E-6): lower protein expression
- CD66b protein expression ([1]; tumor-infiltrating CD45+ segments, p=1.4E-13): lower protein expression
- PTEN protein expression ([1]; tumor-infiltrating CD45+ segments, p=1.5E-11): lower protein expression
- OX40L protein expression [1, 3]: higher protein expression
- PD-1 protein expression [1, 3]: lower protein expression
- VISTA protein expression ([1]; tumor-infiltrating CD45+ segments, p=1.6E-14): lower protein expression
- CD80 protein expression ([1]; tumor-infiltrating CD45+ segments, p=2.4E-3): lower protein expression
- B2M protein expression ([1]; tumor-infiltrating CD45+ segments, p=2.5E-6): lower protein expression
- Ki-67 protein expression ([1]; tumor-infiltrating CD45+ segments, p=2.7E-4): lower protein expression
- CTLA4 protein expression [1, 4]: higher protein expression
- HLA-DR protein expression [1, 4]: lower protein expression
- CD44 protein expression ([1]; tumor-infiltrating CD45+ segments, p=3.1E-7): lower protein expression
- CD34 protein expression ([1]; tumor-infiltrating CD45+ segments, p=3.3E-9): lower protein expression
- CD68 protein expression ([1]; tumor-infiltrating CD45+ segments, p=5.8E-4): lower protein expression
- IDO1 protein expression ([1]; tumor-infiltrating CD45+ segments, p=6.6E-4): lower protein expression
- CD56 protein expression ([1]; tumor-infiltrating CD45+ segments, p=6.9E-3): lower protein expression
- PD-L2 protein expression ([1]; tumor-infiltrating CD45+ segments, p=7.6E-4): lower protein expression
- ARG1 protein expression ([1]; tumor-infiltrating CD45+ segments, p=7.6E-5): lower protein expression
- CD11c protein expression ([1]; tumor-infiltrating CD45+ segments, p=9.5E-3): lower protein expression
- NCR3LG1 (B7-H6) gene expression fold change (HT-29 cells; 24 hours vs DMSO): 1.78 FC
- downregulated genes in VEGFA-VEGFR2 signaling pathway (HT-29 cells; 24 hours vs DMSO): 37
- differentially expressed genes post-treatment (HT-29 cells; IC-50 concentration (1 μM), 24 hours, FC cutoff >1.5, <−1.5, p<0.05): 2,307
